“Also recorded” adds a separate entry of the source. Where a name gives a salt, the structure may show the parent alone.

For assay [1], the system named is 5-HT receptors. Briefly: 5-HT concentration-response curve in antral circular muscle strips. Type of assay: cell-based, rat. Conditions: 5-HT contraction.
The subject of assay [2] is circular muscle strips from the gastric antrum. In words: Contractile responses to EFS of enteric nerves in antral muscle strips of pretreated indomethacin rats. Type of assay: in vivo, rat. Conditions: for Regression Analysis Slope: linear regression of EFS (0.5 ms, 1-15 Hz) frequency-response, indomethacin-treated rats, mean ± SEM, 5-6 rats per group.
The test system of assay [3] is rat model of indomethacin-induced gastric mucosal ulceration. In words: Indomethacin-induced gastric mucosal ulceration (ulceration index). Type of assay: in vivo. The note with it: rats; tegaserod 1 mg/kg, omeprazole 20 mg/kg i.p. b.i.d. one day before and 30 min prior to indomethacin 50 mg/kg intragastric; 6 h post-indomethacin; vs vehicle. As to the method:
Male Sprague-Dawley rats (Charles River, Laboratories, Wilmington, Mass.) weighing 250-300 g were housed two in a cage at standard conditions (21-23° C., controlled humidity, 12 hour light/dark cycle). The animals were allowed to acclimate for one week prior to initiation of drug treatment. The experimental procedures were approved by the Animal Care and Use Committees at the V.A. Medical Center and the University of Oklahoma Health Science Center, Oklahoma City, Okla.
(§1) Prior to the experiment the rats were fasted overnight with free access to water. On the day of experiment the rats received intragastric gavage of 50 mg/kg indomethacin dissolved in 2% NaCO3 and brought to a volume of 1.5 mL in saline (pH 6.8). Indomethacin was given at 7:30 A.M. and the animals were then placed in their home cage with free access to food and water. The rats were euthanized 6 h post-indomethacin infusion, the stomach was isolated and placed in Ca^2+-free Krebs buffer aerated with 95% O2 and 5% CO2.
Drugs were prepared fresh for each experiment and stored at 4° C. between treatments. […]
(§2) The stomach was cut along the small curvature, cleansed of ingested food and the fundus was separated from the glandular portion of the stomach. […] The total length of hemorrhagic lesions, which were approximately 1 mm wide, was measured and served as an index of ulceration. […]

The test system of assay [4] is circular muscle strips from the gastric antrum. Briefly: Contractile response to KCl (80 mM) in antral circular muscle strips of pretreated indomethacin rats. Type of assay: in vivo, rat. Conditions: strips from indomethacin-treated rats pretreated with tegaserod 1 mg/kg, omeprazole 20 mg/kg, vs vehicle.
For assay [5] the test system is unchanged. Briefly: Contractile responses to 5-HT in antral circular muscle strips of pretreated indomethacin rats. Type of assay: in vivo, rat. Conditions: strips from indomethacin-treated rats pretreated with tegaserod 1 mg/kg, omeprazole 20 mg/kg; vs vehicle.
Assay [6] deals with myeloperoxidase (MPO) activity. In words: Mucosal myeloperoxidase activity after indomethacin. In kind it is in vivo, rat. Conditions: rats; tegaserod 1 mg/kg, omeprazole 20 mg/kg i.p. pretreatment; glandular stomach 6 h after indomethacin 50 mg/kg. As to the method: as §1
Drugs were prepared fresh for each experiment and stored at 4° C. between treatments. […] A separate control group received treatment with propylene glycol only. […]
as §2
Following dissection, the mucosal tissue was snap-frozen in liquid nitrogen and stored at −80° C. and MPO activity was assayed simultaneously. […] MPO activity was expressed as equivalent to the activity of the relative standard (ng of HRP) converting the same amount of TMB substrate for 10 min at room temperature. […]

For assay [7], the system named is circular muscle strips from the gastric antrum. Briefly: Contractile responses to carbachol in antral circular muscle strips of pretreated indomethacin rats. The note with it: strips from indomethacin-treated rats pretreated with tegaserod 1 mg/kg, omeprazole 20 mg/kg; vs vehicle. Type of assay: in vivo, rat.
Assay [8] has as its system smooth muscle muscarinic receptors. Briefly: Carbachol concentration-response curve in antral circular muscle strips. In kind it is cell-based, rat. The note with it: carbachol contraction.
Assay [9] has as its system enteric nerves. Type of assay: cell-based, rat.
The mark [10] stands for this setting: second group not named in the sentence (indomethacin-treated rats receiving vehicle).
[11] abbreviates: EFS 0.5 ms, 1-15 Hz, strips from indomethacin-treated rats pretreated with tegaserod 1 mg/kg, omeprazole 20 mg/kg.
[12] abbreviates: strips from vehicle pretreated rats receiving indomethacin.

What is called Hill slope is the slope factor of the fitted curve. For `NCCc1c[nH]c2ccc(O)cc12` [5-HT, 5-hydroxytryptamine creatinine sulfate], in assay [1] (setting [10]), the Hill slope came to 0.65 and the “log EC50” value is 6.839. Besides, in assay [1] (strips from naïve rats), the Hill slope is 0.48 and the “log EC50” value came to 6.299.
Take `COc1ccc2[nH]c([S+]([O-])Cc3ncc(C)c(OC)c3C)nc2c1` (stereo not drawn) [Omeprazole, omeprazole]: the “Regression Analysis Slope” value in assay [2] worked out at 78.8 ± 9.5.
Consider `CCCCCNC(=N)NN=Cc1c[nH]c2ccc(OC)cc12` [Tegaserod, 3-(5-methoxy-1H-indol-3-ylmethylene)-N-pentylcarbazimidamide], for which, in assay [3], the “formation of gastric lesions (ulceration index)” value was “reduced gastric ulceration; also recorded: significantly reduced the formation of gastric lesions”. In addition, the “amplitude of KCl-induced contractions” value in assay [4] is “showed a tendency to prevent the development of hypercontractile responses to KCl, however in the effect of neither of the drugs reached statistical significance”. In addition, in assay [5], the “amplitude of the maximal response to 5-HT” value is given as “significant reduction”. Further, in assay [6], the “mucosal MPO activity” value was “reduced gastric ulceration and mucosal inflammation; also recorded: inhibited MPO activity to levels that were not significantly different from those in naïve animals”. Also, the maximal carbachol-induced contraction entry in [7] was “not significantly different”. In [2] (setting [11]), the “increase of contractile responses to EFS” value is on record as “prevented the increase of contractile responses to EFS” and the “linear frequency-response relationship of EFS contractile responses” value was “preserved the linear frequency-response relationship; also recorded: protected the linear increase in the amplitude of contractile responses”. In addition, the “Indomethacin-induced hypercontractility (KCl, carbachol, 5-HT, EFS; overall statement)” value in assay [2] (antral circular muscle strips, tegaserod 1 mg/kg, omeprazole 20 mg/kg pretreatment) was “significantly attenuated”. Besides, the “Regression Analysis Slope” value in assay [2] stood at 51.9 ± 5.1.
In the case of `C[N+](C)(C)CCOC(N)=O.[Cl-]` [carbachol, carbamylcholine chloride], the Hill slope came to 1.07 in assay [8] (strips from naïve rats) and 1.11 in assay [8] (setting [12]). For the same molecule, the “log EC50” value in [8] (setting [12]) was −7.32.
With `NC1=N[C@H](O)[C@H]2[C@H]3O[C@]4(O)O[C@@H]([C@@H](O)[C@@]2(N1)[C@@H]4O)[C@]3(O)CO` [tetrodotoxin], the “inhibitory and excitatory responses to EFS” value in [9] is reported as “abolished”.

For the origin of these results see patent US20090163551A1, “Compositions and Methods for Treating Diseases” (Novartis AG, priority 2006, published 2009).
